Assay results published in ChEMBL document CHEMBL4610002, “Selenium bioisosteric replacement of adenosine derivatives promoting adiponectin secretion increases the binding affinity to peroxisome proliferator-activated receptor δ” (Bioorg Med Chem, 2020).
Calls of active or inactive are those of the source. The calls are words filed in the database; no cut-off is given here.

Columns and labels:
[1] = target: T1, Peroxisome proliferator-activated receptor alpha (Homo sapiens) (UniProt Q07869); assay: Binding affinity to GST-tagged human PPARalpha LBD up to 30 uM incubated for 2 to 6 hrs by TR-FRET assay
T1 sequence (whole entry): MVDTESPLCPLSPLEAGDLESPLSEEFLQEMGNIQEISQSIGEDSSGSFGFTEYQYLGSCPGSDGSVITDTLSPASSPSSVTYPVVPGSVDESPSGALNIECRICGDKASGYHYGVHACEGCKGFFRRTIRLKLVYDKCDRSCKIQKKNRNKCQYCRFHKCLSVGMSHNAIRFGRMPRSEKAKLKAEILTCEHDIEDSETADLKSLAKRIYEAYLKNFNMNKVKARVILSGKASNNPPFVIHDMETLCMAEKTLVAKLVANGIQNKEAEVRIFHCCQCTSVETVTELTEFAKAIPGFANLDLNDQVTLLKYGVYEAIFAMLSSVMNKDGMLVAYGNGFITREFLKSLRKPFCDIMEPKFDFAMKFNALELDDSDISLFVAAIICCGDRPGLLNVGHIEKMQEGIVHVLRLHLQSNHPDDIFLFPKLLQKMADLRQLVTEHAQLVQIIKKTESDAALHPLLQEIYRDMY

Homo sapiens [2] = species on record: Homo sapiens; assay: Induction of adipogenesis in human MSC at 10 uM incubated for 5 days cotreated with IDX by ELISA; assay type: functional
[3] = target: T2, Peroxisome proliferator-activated receptor delta (Homo sapiens) (UniProt Q03181); assay: Competitive binding affinity to GST-tagged human PPARdelta LBD at 30 uM incubated for 1 to 6 hrs by TR-FRET assay relative to control
T2 sequence (whole entry): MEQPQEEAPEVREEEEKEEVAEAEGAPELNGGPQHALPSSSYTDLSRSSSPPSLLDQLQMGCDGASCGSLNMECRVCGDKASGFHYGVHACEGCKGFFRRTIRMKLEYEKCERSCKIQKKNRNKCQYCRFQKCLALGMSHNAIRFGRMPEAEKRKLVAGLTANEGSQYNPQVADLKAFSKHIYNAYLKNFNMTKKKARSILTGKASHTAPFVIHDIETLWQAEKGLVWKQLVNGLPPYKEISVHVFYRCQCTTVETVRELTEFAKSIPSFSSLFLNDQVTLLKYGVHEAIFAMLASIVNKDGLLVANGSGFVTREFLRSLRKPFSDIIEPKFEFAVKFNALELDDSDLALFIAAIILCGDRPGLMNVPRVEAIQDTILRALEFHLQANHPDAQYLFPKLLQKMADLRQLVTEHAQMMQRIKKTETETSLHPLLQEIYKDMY

[4] = Induction of adipogenesis in human MSC incubated for 5 days cotreated with IDX by ELISA; assay type: functional
[5] = target: T3, Peroxisome proliferator-activated receptor gamma (Homo sapiens, UniProt P37231); assay: (§1) Competitive binding affinity to GST-tagged human PPARgamma LBD incubated for 1 to 6 hrs by TR-FRET assay
T3 sequence (P37231 whole entry): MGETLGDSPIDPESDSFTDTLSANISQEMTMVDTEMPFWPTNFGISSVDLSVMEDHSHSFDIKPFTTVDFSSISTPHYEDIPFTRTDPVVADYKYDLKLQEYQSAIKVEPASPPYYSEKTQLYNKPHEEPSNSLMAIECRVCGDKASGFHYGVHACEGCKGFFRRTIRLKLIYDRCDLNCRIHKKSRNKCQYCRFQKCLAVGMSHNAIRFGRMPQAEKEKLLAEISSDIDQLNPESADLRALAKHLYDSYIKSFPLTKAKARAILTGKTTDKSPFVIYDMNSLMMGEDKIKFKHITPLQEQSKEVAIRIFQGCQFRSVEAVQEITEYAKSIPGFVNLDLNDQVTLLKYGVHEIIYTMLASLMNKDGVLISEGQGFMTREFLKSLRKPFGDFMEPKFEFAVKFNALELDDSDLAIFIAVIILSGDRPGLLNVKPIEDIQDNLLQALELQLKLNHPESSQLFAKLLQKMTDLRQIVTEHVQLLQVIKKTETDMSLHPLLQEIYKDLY

[6] = target: T4, Peroxisome proliferator-activated receptor delta (Homo sapiens, UniProt Q03181); assay: (§2) Competitive binding affinity to GST-tagged human PPARdelta LBD incubated for 1 to 6 hrs by TR-FRET assay
T4 sequence (Q03181 whole entry): T2 sequence (whole entry)

[7] = target: T5, Peroxisome proliferator-activated receptor gamma (Homo sapiens) (UniProt P37231); assay: Partial agonist at PPARgamma LBD (unknown origin) assessed as increase in recruitment of coactivator peptide C33 by TR-FRET assay relative to control
T5 sequence (whole entry): T3 sequence (P37231 whole entry)

[8] = target: T4, Peroxisome proliferator-activated receptor delta; assay: Antagonist activity at PPARdelta LBD (unknown origin) assessed as increase in recruitment of SMRT ID2 corepressor peptide by TR-FRET assay
[9] = target: T4, Peroxisome proliferator-activated receptor delta; assay: Antagonist at PPARdelta LBD (unknown origin) assessed as […] in recruitment of coactivator peptide C33 cotreated with PPARdelta agonist GW501516 by TR-FRET assay
Homo sapiens [10] = species on record: Homo sapiens; assay: Induction of adipogenesis in human MSC at 10 uM incubated for 5 days cotreated with IDX by ELISA relative to control; assay type: functional
[11] = target: T5, Peroxisome proliferator-activated receptor gamma (Homo sapiens); assay: Competitive binding affinity to GST-tagged human PPARgamma LBD at 30 uM incubated for 1 to 6 hrs by TR-FRET assay relative to control
Homo sapiens [12] = species on record: Homo sapiens; assay: Induction of adipogenesis in human MSC assessed as increase in size of lipid droplets in differentiated adipocytes at 10 uM by Oil Red O staining based inverted microscopic method; assay type: functional, cell-based
Homo sapiens [13] = species on record: Homo sapiens; assay: Induction of adipogenesis in human MSC assessed as increase in number of lipid droplets in differentiated adipocytes at 10 uM by Oil Red O staining based inverted microscopic method; assay type: functional, cell-based
[14] = target: T5, Peroxisome proliferator-activated receptor gamma (Homo sapiens); assay: as §1
[15] = target: T2, Peroxisome proliferator-activated receptor delta (Homo sapiens); assay: as §2
[16] = target: T5, Peroxisome proliferator-activated receptor gamma (Homo sapiens); assay: Partial agonist at PPARgamma LBD (unknown origin) assessed as inhibition in recruitment of coactivator peptide C33 cotreated with PPARgamma agonist troglitazone by TR-FRET assay

SMILES | Activity [1] | Activity (Homo sapiens [2]) | Activity [3] [%] | Activity [11] | other results
CNC(=O)[C@H]1[Se][C@@H](n2cnc3c(NC4CCCC4)ncnc32)[C@H](O)[C@@H]1O | inactive |  |  |  | 
CNC(=O)[C@H]1O[C@@H](n2cnc3c(NCc4cccc(I)c4)ncnc32)[C@H](O)[C@@H]1O | inactive |  |  |  | 
CNC(=O)[C@H]1[Se][C@@H](n2cnc3c(NCc4cccc(F)c4)nc(Cl)nc32)[C@H](O)[C@@H]1O | inactive | Active | > 50 |  | 
CNC(=O)[C@H]1[Se][C@@H](n2cnc3c(NCc4ccccc4Cl)ncnc32)[C@H](O)[C@@H]1O | inactive |  |  |  | 
CNC(=O)[C@H]1[Se][C@@H](n2cnc3c(NCc4cccc(F)c4)ncnc32)[C@H](O)[C@@H]1O | inactive |  |  |  | 
CNC(=O)[C@H]1S[C@@H](n2cnc3c(NCc4cccc(I)c4)nc(Cl)nc32)[C@H](O)[C@@H]1O | inactive |  |  |  | EC50 [4]: 20.8 µM; EC50 [5]: 4.64 µM; EC50 [6]: 41.1 nM; Activity [7]: < 50%; EC50 [8]: 16.7 µM; EC50 [9]: 10.7 µM
CNC(=O)[C@H]1[Se][C@@H](n2cnc3c(NCc4cccc(I)c4)nc(Cl)nc32)[C@H](O)[C@@H]1O | inactive | Active | > 50 | > 50% | fold change (FC) (Homo sapiens [10]): 3.22; EC50 [4]: 12.6 µM; Activity (Homo sapiens [12]): Active; Activity (Homo sapiens [13]): Active; Activity [14]: Dose-dependent effect; EC50 [5]: 5.31 µM; Activity [15]: Dose-dependent effect; EC50 [6]: 14.4 nM; Activity [7]: < 50%; inhibition [16]: Active; EC50 [8]: 7.3 µM; EC50 [9]: 5.2 µM
CNC(=O)[C@H]1S[C@@H](n2cnc3c(NCc4cccc(I)c4)ncnc32)[C@H](O)[C@@H]1O | inactive |  |  |  | 
CNC(=O)[C@H]1[Se][C@@H](n2cnc3c(NCc4cccc5ccccc45)ncnc32)[C@H](O)[C@@H]1O | inactive | Active |  | Active | 
CNC(=O)[C@H]1[Se][C@@H](n2cnc3c(NCc4cccc(I)c4)ncnc32)[C@H](O)[C@@H]1O | inactive | Active | > 50 | Active | 
CNC(=O)[C@H]1[Se][C@@H](n2cnc3c(NCc4cccc(Cl)c4)nc(Cl)nc32)[C@H](O)[C@@H]1O | inactive | Active | > 50 | Active | 
CNC(=O)[C@H]1O[C@@H](n2cnc3c(NCc4cccc(I)c4)nc(Cl)nc32)[C@H](O)[C@@H]1O [NAMODENOSON] | inactive |  |  |  | EC50 [4]: 40.6 µM; EC50 [5]: 2.94 µM; EC50 [6]: 191 nM; Activity [7]: < 50%; EC50 [9]: 29.8 µM
CNC(=O)[C@H]1[Se][C@@H](n2cnc3c(NCc4cccc(Br)c4)ncnc32)[C@H](O)[C@@H]1O | inactive | Active | > 50 |  | 
CCc1ccc(CCOc2ccc(CC3SC(=O)NC3=O)cc2)nc1 (stereo unspecified) [PIOGLITAZONE] |  |  |  |  | EC50 [4]: 0.5 µM
CNC(=O)[C@H]1[Se][C@@H](n2cnc3c(NCc4cccc(Br)c4)nc(Cl)nc32)[C@H](O)[C@@H]1O | inactive | Active | > 50 | Active | 
